Measured values as given in article PMC7063992, “Opossum Cathelicidins Exhibit Antimicrobial Activity Against a Broad Spectrum of Pathogens Including West Nile Virus” (Frontiers in Immunology, 2020).
No end group written: not given here.

Key:
[1] = tested on: Enterococcus faecalis ATCC 29212; assay: microbe, parasite or virus in culture; type: cell-based; conditions: E. faecalis ATCC 29212; CAMHB, 37°C 6 h + 2 h; triplicate
Method: (§1) Peptides corresponding to the predicted antimicrobial regions of ModoCath1 (ΔModoCath1, N-VKRTKRGARRGL […]-C), ModoCath5 (ΔModoCath5, N-[…]-C), ModoCath6 (ΔModoCath6, N-[…]-C) and PMAP36 (N-[…] PLGCG-C) were synthesized via solid-phase peptide synthesis and purified via high-performance liquid chromatography using a commercial service (GenScript, Piscataway Township, NJ, United States). The MIC of synthesized peptides was determined against a panel of bacteria comprising 3 gram-positive strains, Staphylococcus aureus ATCC 6538 (ATCC, Manassas, VA, United States), Bacillus cereus ATCC 10876, and Enterococcus faecalis ATCC 29212, and 3 gram-negative strains, Escherichia coli ATCC 25922, Pseudomonas aeruginosa ATCC 27853, and Salmonella typhimurium ATCC 14028. Ampicillin (Sigma Aldrich, St. Louis, MO, United States) and gentamicin sulfate (Sigma Aldrich) were used as controls for antimicrobial activity. The MIC was determined using a colorimetric method specified by the Microbial Viability Assay Kit-WST (Dojindo, Kumamoto, Japan) in accordance with the manufacturer’s protocol and the Clinical and Laboratory Standards Institute (CLSI) guidelines (2018). Briefly, four colonies of each bacterium were inoculated into 5 mL Luria-Bertani (LB) broth medium at 37°C for 4 to 6 h. The cells were washed with sterile saline (0.9% NaCl) twice and seeded in a single well of a 96-well plate at the cell density of 10^5 CFU/well. Subsequently, 180 μL/well of fresh Mueller-Hinton broth (MHB) was added to the plate. Different concentrations of each peptide and reference antibiotics were serially diluted in 10 μL of MHB and added to each well. The plate was incubated at 37°C for 6 h. Cation-adjusted MH broth (CAMHB) was used to culture E. faecalis. Subsequently, 10 μL of the coloring reagent was added, and cells were incubated at 37°C for 2 h. UV absorbance was measured for each well at 450 nm, using a microplate spectrophotometer (xMark spectrophotometer; Bio-Rad, Hercules, CA, United States). MIC values were determined when the difference in the optical density (OD) between treatments and blanks (media and coloring reagent only) decreased to < 0.05. Experiments were conducted in triplicate. […] The pH conditions were achieved by using acetic acid (Sigma Aldrich).

[2] = tested on: Staphylococcus aureus ATCC 6538; assay: microbe, parasite or virus in culture; type: cell-based; conditions: S. aureus ATCC 6538; MHB, 37°C 6 h + 2 h; triplicate
Method: as §1

[3] = tested on: Bacillus cereus ATCC 10876; assay: microbe, parasite or virus in culture; type: cell-based; conditions: B. cereus ATCC 10876; MHB, 37°C 6 h + 2 h; triplicate
Method: as §1

[4] = tested on: Escherichia coli ATCC 25922; assay: microbe, parasite or virus in culture; type: cell-based; conditions: E. coli ATCC 25922
Method: as §1

[5] = tested on: Salmonella typhimurium ATCC 14028; assay: microbe, parasite or virus in culture; type: cell-based; conditions: S. typhimurium ATCC 14028; MHB, 37°C 6 h + 2 h; triplicate
Method: as §1

[6] = tested on: Pseudomonas aeruginosa ATCC 27853; assay: microbe, parasite or virus in culture; type: cell-based; conditions: P. aeruginosa ATCC 27853; MHB, 37°C 6 h + 2 h; triplicate
Method: as §1

[7] = tested on: MCF7; assay: Mammalian cell cytotoxicity, WST-1; type: cell-based, human; conditions: 24 h, WST-1, triplicate
Method: (§2) Two mammalian cell lines, including human embryonic kidney cells (HEK293T) and human breast cancer cells (MCF7) were cultured in Dulbecco’s modified Eagle’s medium (DMEM; Hyclone^TM, Logan, UT, United States) supplemented with 10% FBS (Hyclone^TM) and 1% penicillin/streptomycin (Hyclone^TM) and incubated at 37°C and 5% CO2 up to 80% confluence. Cellular adherence to the substratum was disrupted using Accutase (Innovative Cell Technologies, San Diego, CA, United States). In total, 1 × 10^4 to 4 × 10^4 cells in each well of a 96-well plate containing 8, 16, 32, and 64 μg/mL of ModoCath peptides were incubated for 24 h at 37°C and 5% CO2. Additionally, HEK293T cells were incubated in the FBS-free medium. Triton X 100 (Sigma Aldrich) was used as a positive control for complete cell lysis, and untreated cells were used as the negative control. After incubation, the medium was removed from the wells, and 10 μL of coloring solution (Cell Proliferation Reagent WST-1^TM; Sigma Aldrich) and 100 μL of DMEM (Hyclone^TM) were added to the wells in accordance with the manufacturer’s protocol. Absorbance was measured for each well at 440 nm (peptide-treated and control) and 650 nm (background) and recorded as the OD, using a microplate reader (xMark^TM spectrophotometer; Bio-Rad). Cell viability was calculated using the following equation:
(§3) (1) CellViability(%)=100×(ODpeptide-ODbackground)/(ODnegative-ODbackground)
(§4) All experiments were performed in triplicate.

[8] = tested on: HEK293T; assay: Mammalian cell cytotoxicity, WST-1; type: cell-based, human; conditions: 24 h, WST-1, triplicate
Method: as §2, §3, §4

[9] = Control: MHB at pH 7.5 without any additives, value in brackets
[10] = value in brackets, MHB, 37°C 6 h + 2 h, triplicate

Row | Sequence | MIC [1] | MIC [2] | MIC [3] | MIC ([4]; 1mM MgCl2, value in brackets) [µM] | MIC ([4]; 150mM NaCl, value in brackets) [µM] | MIC [4, 9] [µM] | MIC ([4]; pH 7, value in brackets) [µM] | MIC [4, 10] [µM] | MIC [5] | MIC [6] | Cell viability ± SD ([7]; 8 μg/mL) [%] | Cell viability ± SD ([7]; 16 μg/mL) [%] | Cell viability ± SD ([7]; 32 μg/mL) [%] | Cell viability ± SD ([7]; 64 μg/mL) [%] | Cell viability ± SD ([8]; 8 μg/mL, 37°C) [%] | Cell viability ± SD ([8]; 16 μg/mL) [%] | Cell viability ± SD ([8]; 32 μg/mL) [%] | Cell viability ± SD ([8]; 64 μg/mL) [%] | further results
1 | VKRTKRGARRGLTKVLKKIFGSIVKKAVSKGV [ΔModoCath1] | 2 (0.57) μg/mL | 3 (0.85) μg/mL | 30 (8.5) μg/mL | 0.14 | 0.14 | 0.21 | 0.21 | 0.21 | 2 (0.57) μg/mL | 2 (0.57) μg/mL | 91.2 ± 2.5 | 89.2 ± 0.6 | 79.1 ± 1.8 | 42.4 ± 2.1 | 108.1 ± 9.9 | 105.5 ± 6.9 | 66.9 ± 5.0 | 55.7 ± 6.2 | MIC ([4]; 2.5mM CaCl2, value in brackets): 0.29 µM; MIC ([4]; 4.5mM KCl, value in brackets): 0.14 µM
2 | VRRSKRGIKVPSFVKKVLKDVVSESIS [ΔModoCath6] | > 32(10.51) μg/mL | > 32(10.51) μg/mL | > 32(10.51) μg/mL | – | – | – | – | – | > 32(10.51) μg/mL | > 32(10.51) μg/mL | 89.2 ± 1.4 | 93.2 ± 0.9 | 92.8 ± 1.0 | 95.2 ± 1.0 | 103.8 ± 5.0 | 95.6 ± 8.4 | 89.0 ± 13.1 | 88.8 ± 8.1 | MIC ([4]; MHB, 10^5 CFU/well, 37°C 6 h + 2 h with coloring reagent, OD 450 nm, triplicate): 5 (1.64) μg/mL
3 | WYQLIRTFGNLIHQKYRKLLEAYRKLRD [ΔModoCath5] | 2 (0.55) μg/mL | 1.5 (0.41) μg/mL | 6 (1.66) μg/mL | 2.48 | 2.07 | 1.38 | 1.38 | 1.38 | > 32(8.83) μg/mL | > 32(8.83) μg/mL | 98.4 ± 4.2 | 84.6 ± 0.6 | 28.4 ± 0.7 | 10.3 ± 2.8 | 93.7 ± 8.3 | 67.4 ± 3.1 | 47.8 ± 2.7 | 35.0 ± 0.8 | MIC ([4]; pH 6, value in brackets): 0.69 µM
